Laboratory results published in patent EP2998294A1, “Naphthyl sulfonamide phenyl derivatives as KEAP-1 modulators for the treatment of diabetes, obesity, dyslipidemia and related disorders” (SANOFI, priority 2014, dated 2016).

Biological target: T1, human Keap1 kelch domain (amino acids Ala321-Thr609) (Homo sapiens, UniProt Q14145)
T1 construct: human Keap1 kelch domain (amino acids Ala321-Thr609)
Test: Keap1-Nrf2 peptide binding assay (fluorescence polarisation)
Conditions: binding of Keap1 kelch domain (20 nM) to fluorescently labeled Nrf2 peptide (50 nM)
Protocol: A fluorescence polarisation assay was used to measure binding of the human Keap1 kelch domain (amino acids Ala321-Thr609) to a fluorescently labeled peptide containing a Keap1 binding site of human Nrf2 (Alexa633-AFFAQLQLDEETGEFL; JPT Technologies, Berlin, Germany). Two microliters of test compound in reaction buffer (phosphate-buffered saline, 2 mM DL-dithiothreitol, 0.015 % (v/v) Brij-35) containing 6 % (v/v) DMSO were mixed with two microliters of the Keap1 kelch domain in reaction buffer in a black 384-well small volume microtiter plate and incubated at ambient temperature for 15 minutes. Thereafter, two microliters were added of the fluorescently labeled Nrf2 peptide in reaction buffer, and the mixture was incubated for a further 30 minutes at ambient temperature. Final concentrations of the Keap1 kelch domain and the fluorescently labeled Nrf2 peptide were 20 nM and 50 nM, respectively.
Fluorescence polarization (FP) was measured at excitation and emission wavelengths of 635 nm and 660 nm, respectively. Positive controls for binding (two microliters of reaction buffer containing 6 % (v/v) DMSO instead of test compound in the same buffer) and negative controls (as positive controls, but without Keap1 kelch domain) were included on each microtiter plate. Data were expressed as percent-inhibition values: percentinhibition = 100⋅(1-(|FPcompound-FPnegative controle|)/(|FPpositive controle-FPnegative controle|)) [formula]
IC50 values were determined by testing different compound concentrations and fitting the resulting percent-inhibition values to the following equation using XLFit4: percentinhibition = A + (B-A)/(1 + (((IC50)/([Compound])))^D) [formula]
Parameter A was set to zero, pre-fit values for parameters B and D were set to 100 and 1, respectively.

T1 sequence (Q14145 321-609): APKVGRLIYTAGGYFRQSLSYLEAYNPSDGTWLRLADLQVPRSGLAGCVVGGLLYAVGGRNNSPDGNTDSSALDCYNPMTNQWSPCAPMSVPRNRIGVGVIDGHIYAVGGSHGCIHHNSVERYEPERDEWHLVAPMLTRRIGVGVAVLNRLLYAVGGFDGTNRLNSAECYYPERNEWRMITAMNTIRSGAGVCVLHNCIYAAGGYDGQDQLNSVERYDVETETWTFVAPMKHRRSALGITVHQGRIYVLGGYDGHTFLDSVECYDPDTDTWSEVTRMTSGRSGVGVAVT

SMILES	IC50
Cc1c(Cl)cccc1S(=O)(=O)Nc1ccc(-c2cccc(C(=O)O)c2)c2ccccc12 [Example 13, 3-[4-[(3-chloro-2-methylphenyl)sulfonylamino]-1-naphthyl]benzoic acid]	1.1 µM
O=C(O)c1cccc(-c2ccc(NS(=O)(=O)c3ccc(Cl)cc3Cl)c3ccccc23)c1 [Example 15, 3-[4-[(2,4-dichlorophenyl)sulfonylamino]-1-naphthyl]benzoic acid]	1 µM
O=C(O)c1cccc(-c2ccc(NS(=O)(=O)c3cc(Cl)c(Cl)s3)c3ccccc23)c1 [Example 19, 3-[4-[(4,5-dichloro-2-thienyl)sulfonylamino]-1-naphthyl]benzoic acid]	7 µM
Cc1cccc(Cl)c1S(=O)(=O)Nc1ccc(-c2cccc(C(=O)O)c2)c2ccccc12 [Example 21, 3-[4-[(2-chloro-6-methylphenyl)sulfonylamino]-1-naphthyl]benzoic acid]	1.8 µM
N#Cc1ccc(S(=O)(=O)Nc2ccc(-c3cccc(C(=O)O)c3)c3ccccc23)c(Cl)c1 [Example 33, 3-[4-[(2-chloro-4-cyanophenyl)sulfonylamino]-1-naphthyl]benzoic acid]	5.2 µM
O=C(O)c1cccc(-c2ccc(NS(=O)(=O)c3cccc(Cl)c3Cl)c3ccccc23)c1 [Example 34, 3-[4-[(2,3-dichlorophenyl)sulfonylamino]-1-naphthyl]benzoic acid]	1.5 µM
O=C(O)c1cccc(-c2ccc(NS(=O)(=O)c3ccc(F)cc3Cl)c3ccccc23)c1 [Example 35, 3-[4-[(2-chloro-4-fluorophenyl)sulfonylamino]-1-naphthyl]benzoic acid]	5.6 µM

Same assay, conditions: binding of Keap1 kelch domain (20 nM) to fluorescently labeled Nrf2 peptide (50 nM); read-out: IC50

SMILES	IC50
Cc1cc(C)c(C)c(S(=O)(=O)Nc2ccc(-c3cccc(C(=O)O)c3)c3ccccc23)c1C [Example 1, 3-[4-[(2,3,5,6-tetramethyl-phenyl)-sulfonylamino]-1-naphthyl]benzoic acid]	0.2 µM
COc1ccc(S(=O)(=O)Nc2ccc(-c3cccc(C(=O)O)c3)c3ccccc23)c(OC)c1 [Example 2, 3-[4-[(2,4-dimethoxyphenyl)sulfonylamino]-1-naphthyl]benzoic acid]	4.5 µM
Cc1ccc(S(=O)(=O)Nc2ccc(-c3cccc(C(=O)O)c3)c3ccccc23)cc1 [Example 3, 3-[4-(p-tolylsulfonylamino)-1-naphthyl]benzoic acid]	2.1 µM
Cc1cc(C)c(C)c(S(=O)(=O)Nc2ccc(-c3cccc(C(=O)O)c3F)c3ccccc23)c1C [Example 4, 2-fluoro-3-[4-[(2,3,5,6-tetramethylphenyl)sulfonylamino]-1-naphthyl]benzoic acid]	0.2 µM
Cc1cc(C)c(C)c(S(=O)(=O)Nc2ccc(-c3cc(C(=O)O)ccc3F)c3ccccc23)c1C [Example 5, 4-fluoro-3-[4-[(2,3,5,6-tetramethylphenyl)sulfonylamino]-1-naphthyl]benzoic acid]	0.09 µM
Cc1cc(C)c(C)c(S(=O)(=O)Nc2ccc(-c3ccc(F)c(C(=O)O)c3)c3ccccc23)c1C [Example 6, 2-fluoro-5-[4-[(2,3,5,6-tetramethylphenyl)sulfonylamino]-1-naphthyl]benzoic acid]	1.7 µM
Cc1ccc2c(NS(=O)(=O)c3c(C)c(C)cc(C)c3C)ccc(-c3cccc(C(=O)O)c3)c2n1 [Example 7, 3-[2-methyl-5-[(2,3,5,6-tetramethylphenyl)sulfonylamino]-8-quinolyl]benzoic acid]	1.1 µM
Cc1nc(-c2ccc(C(F)(F)F)cc2)sc1S(=O)(=O)Nc1ccc(-c2cccc(C(=O)O)c2F)c2ccccc12 [Example 8, 2-fluoro-3-[4-[[4-methyl-2-[4-(trifluoromethyl)phenyl]thiazol-5-yl]sulfonylamino]-1-naphthyl]benzoic acid]	5.2 µM
Cc1nc(-c2ccc(C(F)(F)F)cc2)sc1S(=O)(=O)Nc1ccc(-c2cc(C(=O)O)ccc2F)c2ccccc12 [Example 9, 4-fluoro-3-[4-[[4-methyl-2-[4-(trifluoromethyl)phenyl]thiazol-5-yl]sulfonylamino]-1-naphthyl]benzoic acid]	5.8 µM
Cc1cc(C)c(C)c(S(=O)(=O)Nc2ccc(-c3cccc(C(=O)O)c3O)c3ccccc23)c1C [Example 10, 2-hydroxy-3-[4-[(2,3,5,6-tetramethylphenyl)sulfonylamino]-1-naphthyl]benzoic acid]	2.5 µM
CC(=O)Nc1nc(C)c(S(=O)(=O)Nc2ccc(-c3cccc(C(=O)O)c3)c3ccccc23)s1 [Example 11, 3-[4-[(2-acetamido-4-methyl-thiazol-5-yl)sulfonylamino]-1-naphthyl]benzoic acid]	2.8 µM
Cc1nn(C)c(Cl)c1S(=O)(=O)Nc1ccc(-c2cccc(C(=O)O)c2)c2ccccc12 [Example 12, 3-[4-[(5-chloro-1,3-dimethyl-pyrazol-4-yl)sulfonylamino]-1-naphthyl]benzoic acid]	0.4 µM
Cc1cc(S(=O)(=O)Nc2ccc(-c3cccc(C(=O)O)c3)c3ccccc23)c(Cl)cc1Cl [Example 14, 3-[4-[(2,4-dichloro-5-methylphenyl)sulfonylamino]-1-naphthyl]benzoic acid]	3.8 µM
O=C(O)c1cccc(-c2ccc(NS(=O)(=O)c3c(F)cccc3F)c3ccccc23)c1 [Example 16, 3-[4-[(2,6-difluorophenyl)sulfonylamino]-1-naphthyl]benzoic acid]	6.5 µM
Cc1c(S(=O)(=O)Nc2ccc(-c3cccc(C(=O)O)c3)c3ccccc23)sc2ccc(Cl)cc12 [Example 17, 3-[4-[(5-chloro-3-methyl-benzothiophen-2-yl)sulfonylamino]-1-naphthyl]benzoic acid]	1.6 µM
COc1cc(C)ccc1S(=O)(=O)Nc1ccc(-c2cccc(C(=O)O)c2)c2ccccc12 [Example 18, 3-[4-[(2-methoxy-4-methylphenyl)sulfonylamino]-1-naphthyl]benzoic acid]	5.8 µM
O=C(O)c1cccc(-c2ccc(NS(=O)(=O)c3ccc(-n4cccn4)cc3)c3ccccc23)c1 [Example 20, 3-[4-[(4-pyrazol-1-ylphenyl)sulfonylamino]-1-naphthyl]benzoic acid]	4 µM
Cc1nn(C)c(C)c1S(=O)(=O)Nc1ccc(-c2cccc(C(=O)O)c2)c2ccccc12 [Example 22, 3-[4-[(1,3,5-trimethylpyrazol-4-yl)sulfonylamino]-1-naphthyl]benzoic acid]	0.8 µM
Cc1c(S(=O)(=O)Nc2ccc(-c3cccc(C(=O)O)c3)c3ccccc23)cnn1-c1ccccc1 [Example 23, 3-[4-[(5-methyl-1-phenyl-pyrazol-4-yl)sulfonylamino]-1-naphthyl]benzoic acid]	4.5 µM
Cc1nc(C)c(S(=O)(=O)Nc2ccc(-c3cccc(C(=O)O)c3)c3ccccc23)s1 [Example 24, 3-[4-[(2,4-dimethylthiazol-5-yl)sulfonylamino]-1-naphthyl]benzoic acid]	4.6 µM
Cc1ccc2sc(S(=O)(=O)Nc3ccc(-c4cccc(C(=O)O)c4)c4ccccc34)cc2c1 [Example 25, 3-[4-[(5-methylbenzothiophen-2-yl)sulfonylamino]-1-naphthyl]benzoic acid]	3 µM
O=C(O)c1cccc(-c2ccc(NS(=O)(=O)c3ccc(N4CCCC4=O)cc3)c3ccccc23)c1 [Example 26, 3-[4-[[4-(2-oxopyrrolidin-1-yl)phenyl]sulfonylamino]-1-naphthyl]benzoic acid]	2.5 µM
CC(=O)N1c2ccc(S(=O)(=O)Nc3ccc(-c4cccc(C(=O)O)c4)c4ccccc34)cc2CC1C (stereo not drawn) [Example 27, 3-[4-[(1-acetyl-2-methyl-indolin-5-yl)sulfonylamino]-1-naphthyl]benzoic acid]	3.6 µM
Cc1ccc(F)c(S(=O)(=O)Nc2ccc(-c3cccc(C(=O)O)c3)c3ccccc23)c1 [Example 28, 3-[4-[(2-fluoro-5-methylphenyl)sulfonylamino]-1-naphthyl]benzoic acid]	5.1 µM
O=C(O)c1cccc(-c2ccc(NS(=O)(=O)c3ccc4[nH]c(=O)sc4c3)c3ccccc23)c1 [Example 29, 3-[4-[(2-oxo-3H-1,3-benzothiazol-6-yl)sulfonylamino]-1-naphthyl]benzoic acid]	5.1 µM
CC(=O)N1CCCc2cc(S(=O)(=O)Nc3ccc(-c4cccc(C(=O)O)c4)c4ccccc34)ccc21 [Example 30, 3-[4-[(1-acetyl-3,4-dihydro-2H-quinolin-6-yl)sulfonylamino]-1-naphthyl]benzoic acid]	4.3 µM
CC(=O)Nc1ccc(C)c(S(=O)(=O)Nc2ccc(-c3cccc(C(=O)O)c3)c3ccccc23)c1 [Example 31, 3-[4-[(5-acetamido-2-methylphenyl)sulfonylamino]-1-naphthyl]benzoic acid]	3.2 µM
COc1ccc(F)c(S(=O)(=O)Nc2ccc(-c3cccc(C(=O)O)c3)c3ccccc23)c1 [Example 32, 3-[4-[(2-fluoro-5-methoxyphenyl)sulfonylamino]-1-naphthyl]benzoic acid]	3.3 µM
O=C(O)c1cccc(-c2ccc(NS(=O)(=O)c3ccc(N4CCOCC4)nc3)c3ccccc23)c1 [Example 36, 3-[4-[(6-morpholino-3-pyridyl)sulfonylamino]-1-naphthyl]benzoic acid]	4.2 µM
